Assay results published in patent US20160316790A1, “BETA-HINOKITIOL DERIVATIVES AND APPLICATIONS THEREOF IN PREPARATION OF ANIMAL ANTIBACTERIAL AGENTS AND ANTIBACTERIAL GROWTH PROMOTERS USED IN FEED” (GUANGZHOU INSIGHTER BIOTECHNOLOGY CO., LTD., priority 2013, published 2016).
≈ marks a conversion by molar mass, not a printed value. Where “and” joins values, the source holds several entries; their conditions need not be identical. Identical values can stand only once. Like-named read-outs stand apart in the source and are kept apart here.

Experiments:
clostridium perfringens = assay: microbe, parasite or virus in culture; format: cell-based
salmonellas = assay: Minimum inhibitory concentration in vitro, doubling dilutions; format: cell-based
haemophilus parasuis = assay: as above; format: cell-based; details: Glaesserella parasuis
escherichia coli = assay: as above; format: cell-based
streptococcus = assay: as above; format: cell-based
vibrio = assay: as above; format: cell-based
[1] = Effect of β-hinokitiol derivatives on diarrhea of weaned pigs; format: in vivo; details: weaned pigs, 60 ppm in diet, 10 days
Source text: 80 25-day-old weaned pigs were randomly divided into eight groups according to table 7, 10 pigs in each group. […] During the testing, the pigs ate food and drank water freely with temperature preservation. The test lasted for 10 days.

riemerella anatipestifer = assay: Minimum inhibitory concentration in vitro, doubling dilutions; format: cell-based
[2] = Application effect test of β-hinokitiol derivatives in broiler feeds; format: in vivo, fast-grown type yellow feather broilers; details: 14 days
Source text: 598 fast-grown type yellow feather broilers (female) aged 30-days were divided into five groups according to table 5. […] During the test, the broilers ate food and drank water freely. The test lasted for 14 days. […] [table]

[3] = test system: major animal pathogenic bacteria; assay: In vitro antibacterial activity (MICs), overall statement; format: cell-based; details: Tables 1 to 4
staphylococcus aureus = assay: Minimum inhibitory concentration in vitro, doubling dilutions; format: cell-based
[4] = read-out: Minimum inhibitory concentration (MIC), Clostridium JM1210B
[5] = read-out: Minimum inhibitory concentration (MIC), Clostridium JM1212A
[6] = strain FS1303B, read-out: Minimum inhibitory concentration (MIC), Salmonellas FS1303B
[7] = strain GD1303-3, read-out: Minimum inhibitory concentration (MIC), Salmonellas GD1303-3
[8] = read-out: Minimum inhibitory concentration (MIC), Haemophilus parasuis 2-3A
[9] = read-out: Minimum inhibitory concentration (MIC), Haemophilus parasuis S5A
[10] = read-out: Minimum inhibitory concentration (MIC), Eserichia coli HZ1308-1
[11] = read-out: Minimum inhibitory concentration (MIC), Eserichia coli SS1107A
[12] = strain KP1307-1, read-out: Minimum inhibitory concentration (MIC), Streptococcus KP1307-1
[13] = strain TS1205-2, read-out: Minimum inhibitory concentration (MIC), Streptococcus TS1205-2
[14] = read-out: Minimum inhibitory concentration (MIC), Vibrio VP3
[15] = read-out: Minimum inhibitory concentration (MIC), Vibrio VP5
[16] = read-out: Minimum inhibitory concentration (MIC), Streptococcus KP1307-1
[17] = read-out: Minimum inhibitory concentration (MIC), Riemerella anatipestifer SCAU03
[18] = strain WS, read-out: Minimum inhibitory concentration (MIC), Riemerella anatipestifer WS
[19] = broilers, 40 ppm mixed with feed
[20] = strain 2-3A, read-out: Minimum inhibitory concentration (MIC), Haemophilus parasuis 2-3A

Row | Compound | MIC (clostridium perfringens; [4]) | MIC (clostridium perfringens; [5]) | MIC (salmonellas; [6]) | MIC (salmonellas; [7]) | MIC (haemophilus parasuis; [9]) | MIC (escherichia coli; [10]) | MIC (escherichia coli; [11]) | MIC (streptococcus; [12]) | MIC (streptococcus; [13]) | MIC (vibrio; [14]) | MIC (vibrio; [15]) | MIC (riemerella anatipestifer; [17]) | MIC (riemerella anatipestifer; [18]) | further results
1 | O=c1cccc(CCCF)cc1O [IST_009_031, 4-(3-fluoropropyl)-2-hydroxycyclohepta-2,4,6-trienone] | 6.25 µg/mL (≈ 34.3 µM) | 6.25 µg/mL (≈ 34.3 µM) | 50 µg/mL (≈ 274 µM) | 50 µg/mL (≈ 274 µM) | 3.13 µg/mL (≈ 17.2 µM) | 25 µg/mL (≈ 137 µM) | 100 µg/mL (≈ 549 µM) |  |  |  |  |  |  | MIC (haemophilus parasuis; [8]): 6.25 µg/mL (≈ 34.3 µM)
2 | O=c1cccc(Cc2ccc(F)cc2)cc1O [IST_009_028, 4-(4-fluorobenzyl)-2-hydroxycyclohepta-2,4,6-trienone] |  |  |  |  |  |  |  | 25 µg/mL (≈ 109 µM) | 25 µg/mL (≈ 109 µM) | 100 µg/mL (≈ 434 µM) | 100 µg/mL (≈ 434 µM) |  |  | 
3 | Colistin sulfate [reference compound] |  |  |  |  |  |  |  |  |  |  |  |  |  | Average daily diarrhea rate [1]: 30% and 33%
4 | CCc1cccc(=O)c(O)c1 [IST_009_018, 4-ethyl-2-hydroxycyclohepta-2,4,6-trienone] | 3.13 µg/mL (≈ 20.8 µM) | 3.13 µg/mL (≈ 20.8 µM) | 12.5 µg/mL (≈ 83.2 µM) | 25 µg/mL (≈ 166 µM) | 1.56 µg/mL (≈ 10.4 µM) | 25 µg/mL (≈ 166 µM) | 50 µg/mL (≈ 333 µM) |  | > 100 µg/mL | 25 µg/mL (≈ 166 µM) | 25 µg/mL (≈ 166 µM) | 12.5 µg/mL (≈ 83.2 µM) | 6.25 µg/mL (≈ 41.6 µM) | MIC (streptococcus; [16]): 12.5 µg/mL (≈ 83.2 µM); MIC (haemophilus parasuis; [8]): 3.13 µg/mL (≈ 20.8 µM)
5 | O=c1cccc(Cc2ccc(Cl)cc2)cc1O [IST_009_025, 4-(4-chlorobenzyl)-2-hydroxycyclohepta-2,4,6-trienone] |  |  |  |  |  |  |  | 25 µg/mL (≈ 101 µM) | 25 µg/mL (≈ 101 µM) | > 100 µg/mL | > 100 µg/mL |  |  | 
6 | CCCCCc1cccc(=O)c(O)c1 [IST_009_003, 2-hydroxy-4-pentylcyclohepta-2,4,6-trienone] | 6.25 µg/mL (≈ 32.5 µM) | 6.25 µg/mL (≈ 32.5 µM) | 6.25 µg/mL (≈ 32.5 µM) | 12.5 µg/mL (≈ 65 µM) |  | 6.25 µg/mL (≈ 32.5 µM) | 12.5 µg/mL (≈ 65 µM) |  |  | 50 µg/mL (≈ 260 µM) | 25 µg/mL (≈ 130 µM) | 12.5 µg/mL (≈ 65 µM) | 3.13 µg/mL (≈ 16.3 µM) | Average daily weight gain [2, 19]: 36.21 g/d * bird and 34.19 g/d * bird and 37.14 g/d * bird; Average weight gain [2, 19]: 502.05 g and 449.90 g and 534.50 g; Total consumption [2, 19]: 58.05 kg and 57.71 kg and 58.17 kg; feed conversion efficiency [2, 19]: 2.862 and 2.952 and 2.868; weight gain and feed conversion efficiency of the experimental broilers (in words) ([2]; in feed): could enhance the weight gain and the feed conversion efficiency; MIC (streptococcus; [16]): 12.5 µg/mL (≈ 65 µM); MIC (streptococcus; read-out: Minimum inhibitory concentration (MIC), Streptococcus TS1205-2): 12.5 µg/mL (≈ 65 µM); MIC (haemophilus parasuis; [20]): 0.2 µg/mL (≈ 1.04 µM); antibacterial activities compared with the lead compound IST_001_002 (in words) [3]: better than those of the lead compound IST_001_002
7 | CCCCCCCCc1cccc(=O)c(O)c1 [IST_009_030, 2-hydroxy-4-octylcyclohepta-2,4,6-trienone] | 25 µg/mL (≈ 107 µM) | 12.5 µg/mL (≈ 53.3 µM) | 25 µg/mL (≈ 107 µM) | > 100 µg/mL | 0.39 µg/mL (≈ 1.66 µM) | 25 µg/mL (≈ 107 µM) | > 100 µg/mL | 25 µg/mL (≈ 107 µM) | 25 µg/mL (≈ 107 µM) | > 100 µg/mL | > 100 µg/mL | 12.5 µg/mL (≈ 53.3 µM) | 3.13 µg/mL (≈ 13.4 µM) | MIC (staphylococcus aureus; read-out: Minimum inhibitory concentration (MIC), Staphylococcus aureus PNB14): 12.5 µg/mL (≈ 53.3 µM); MIC (staphylococcus aureus; read-out: Minimum inhibitory concentration (MIC), Staphylococcus aureus SA10): 12.5 µg/mL (≈ 53.3 µM); MIC (haemophilus parasuis; [20]): 6.25 µg/mL (≈ 26.7 µM)
